According to patent US8772319B2 (priority 2004, dated 2014):
Read-outs that look alike come from different tables or passages of the source.

Key:
[1] = biological target: T1, human dopamine transporter (hDAT) (Homo sapiens, UniProt Q01959); test: biochemical; assay type: binding
[2] = biological target: T2, human norepinephrine transporter (hNET) (Homo sapiens, UniProt P23975); test: cell-based; details: read-out: Reuptake Inhibition [3H]NE IC50
[3] = biological target: T3, human serotonin transporter (hSERT) (Homo sapiens, UniProt P31645); test: cell-based
T3 sequence (P31645 whole entry): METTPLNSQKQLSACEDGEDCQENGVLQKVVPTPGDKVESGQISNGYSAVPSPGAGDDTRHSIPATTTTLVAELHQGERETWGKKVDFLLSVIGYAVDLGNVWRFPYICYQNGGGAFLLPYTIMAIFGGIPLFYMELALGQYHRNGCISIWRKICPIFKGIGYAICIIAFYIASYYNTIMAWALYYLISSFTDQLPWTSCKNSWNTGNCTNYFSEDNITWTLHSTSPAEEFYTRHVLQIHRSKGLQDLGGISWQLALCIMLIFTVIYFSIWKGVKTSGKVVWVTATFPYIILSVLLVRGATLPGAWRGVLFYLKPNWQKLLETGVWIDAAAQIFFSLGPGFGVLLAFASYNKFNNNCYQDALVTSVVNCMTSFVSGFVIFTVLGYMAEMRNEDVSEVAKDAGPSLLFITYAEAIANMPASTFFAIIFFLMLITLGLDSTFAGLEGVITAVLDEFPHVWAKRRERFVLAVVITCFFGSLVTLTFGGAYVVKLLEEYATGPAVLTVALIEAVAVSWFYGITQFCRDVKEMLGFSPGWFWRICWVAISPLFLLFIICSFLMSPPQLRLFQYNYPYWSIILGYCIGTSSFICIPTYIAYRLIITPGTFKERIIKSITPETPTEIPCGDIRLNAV

[4] = biological target: T2, human norepinephrine transporter (hNET); test: biochemical; details: read-out: NET binding affinity Ki
[5] = biological target: T3, human serotonin transporter (hSERT); test: biochemical; details: [125I]RTI-55, read-out: SERT binding affinity Ki
[6] = biological target: T1, human dopamine transporter (hDAT); test: cell-based
[7] = Table 4, [125I]RTI-55, read-out: DAT binding affinity Ki
[8] = Table 4-1, read-out: Reuptake Inhibition [3H]5-HT IC50
[9] = Table 4-1, read-out: Reuptake Inhibition [3H]DA IC50
[10] = Reuptake Inhibition [3H]5-HT IC50, Table 6
[11] = Table 5, [125I]RTI-55, oxalate salts
[12] = Reuptake Inhibition [3H]DA IC50, Table 6

T2 sequence (P23975 whole entry): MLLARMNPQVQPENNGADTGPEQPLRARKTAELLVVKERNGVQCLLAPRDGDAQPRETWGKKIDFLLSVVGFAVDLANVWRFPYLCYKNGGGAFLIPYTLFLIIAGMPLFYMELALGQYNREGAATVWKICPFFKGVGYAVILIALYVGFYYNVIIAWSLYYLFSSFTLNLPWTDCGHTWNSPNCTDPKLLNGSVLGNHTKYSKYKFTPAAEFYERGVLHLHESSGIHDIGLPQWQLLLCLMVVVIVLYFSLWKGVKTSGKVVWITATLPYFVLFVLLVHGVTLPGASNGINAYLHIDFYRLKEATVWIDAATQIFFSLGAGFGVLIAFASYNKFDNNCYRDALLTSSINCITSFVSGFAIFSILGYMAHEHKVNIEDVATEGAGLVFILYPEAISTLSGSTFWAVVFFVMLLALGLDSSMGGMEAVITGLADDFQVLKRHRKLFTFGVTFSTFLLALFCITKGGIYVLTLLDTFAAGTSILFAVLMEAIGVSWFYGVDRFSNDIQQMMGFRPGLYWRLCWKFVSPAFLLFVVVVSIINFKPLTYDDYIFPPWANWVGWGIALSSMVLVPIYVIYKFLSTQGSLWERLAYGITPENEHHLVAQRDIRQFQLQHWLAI
T1 sequence (Q01959 whole entry): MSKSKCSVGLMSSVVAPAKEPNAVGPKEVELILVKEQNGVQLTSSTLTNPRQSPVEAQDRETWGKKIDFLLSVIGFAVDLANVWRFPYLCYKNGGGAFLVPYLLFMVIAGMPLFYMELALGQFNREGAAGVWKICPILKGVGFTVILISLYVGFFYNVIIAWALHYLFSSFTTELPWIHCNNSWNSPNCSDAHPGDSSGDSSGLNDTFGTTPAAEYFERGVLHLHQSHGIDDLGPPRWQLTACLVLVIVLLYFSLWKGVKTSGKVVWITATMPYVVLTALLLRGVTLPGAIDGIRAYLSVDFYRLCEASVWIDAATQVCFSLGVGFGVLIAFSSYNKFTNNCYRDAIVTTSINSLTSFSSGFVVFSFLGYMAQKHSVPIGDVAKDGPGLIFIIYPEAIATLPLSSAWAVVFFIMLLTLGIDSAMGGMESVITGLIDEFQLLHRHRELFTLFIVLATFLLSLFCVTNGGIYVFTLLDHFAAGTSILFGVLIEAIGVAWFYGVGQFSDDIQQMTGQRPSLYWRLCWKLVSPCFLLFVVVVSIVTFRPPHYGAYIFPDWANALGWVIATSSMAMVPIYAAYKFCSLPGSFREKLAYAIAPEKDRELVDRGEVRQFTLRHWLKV

| Compound | Ki [1] [nM] | Binding Ratios SERT/DAT ([1]; Table 4) | Ki [1, 7] [nM] | IC50 [3, 8] [µM] | Ki ([5]; Table 4) [nM] | Discrimination Ratios [3H]DA reuptake/DAT binding ([6]; Table 4-1) | IC50 [6, 9] [µM] | Binding Ratios NET/DAT ([1]; Table 5) | Binding Ratios SERT/DAT ([1]; Table 5) | Discrimination Ratios (DR) [3H]DA reuptake/DAT binding ([6]; Table 6) | other results |
| --- | --- | --- | --- | --- | --- | --- | --- | --- | --- | --- | --- |
| O=C(NCc1ccc(F)cc1)NC1CCN(CCCCOC(c2ccc(F)cc2)c2ccc(F)cc2)CC1 [Compound 18] | 1.7 |  |  |  |  |  |  |  |  |  | Binding Ratios NET/DAT ([1]; Table 3): 25.3; Binding Ratios SERT/DAT ([1]; Table 3): 121; IC50 ([2]; Table 3-1): 1.67 ± 0.688 µM; IC50 ([3]; Reuptake Inhibition [3H]5-HT IC50, Table 3-1, bound given in μM): > 10 µM; Ki ([4]; Table 3, [125I]RTI-55): 0.043 µM; Ki ([5]; Table 3): 206 ± 37 nM; IC50 ([6]; Reuptake Inhibition [3H]DA IC50, Table 3-1): 1.05 ± 0.291 µM; Discrimination Ratios [3H]DA reuptake/DAT binding ([6]; Table 3-1): 618 |
| NCC1(c2ccccc2)CCN(CCCCOC(c2ccc(F)cc2)c2ccc(F)cc2)CC1 [Compound 21] |  | 2.5 | 140 ± 53 | 0.337 ± 0.128 | 347 ± 152 | 1.1 | 0.155 |  |  |  |  |
| O=C(NCC1(c2ccccc2)CCN(CCCCOC(c2ccc(F)cc2)c2ccc(F)cc2)CC1)Nc1ccc(F)cc1 [Compound 22] | 83 | 2.8 |  | 0.367 ± 0.062 | 234 | 120.5 |  |  |  |  | IC50 ([6]; Table 4-1, bound given in μM, read-out: Reuptake Inhibition [3H]DA IC50): > 10 µM |
| CC(=O)NCC1(c2ccccc2)CCN(CCCCOC(c2ccc(F)cc2)c2ccc(F)cc2)CC1 [Compound 23] |  | 1.5 | 172 ± 14 | 0.359 ± 0.078 | 258 ± 76 | 0.8 | 0.129 ± 0.032 |  |  |  |  |
| O=C(CCN1C(=O)C=CC1=O)NCC1(c2ccccc2)CCN(CCCCOC(c2ccc(F)cc2)c2ccc(F)cc2)CC1 [Compound 25] |  | 7.7 | 827 ± 197 | 3.12 ± 1.47 | 6400 ± 2680 | 1.2 | 0.988 ± 0.305 |  |  |  |  |
| O=C(CCl)NCC1(c2ccccc2)CCN(CCCCOC(c2ccc(F)cc2)c2ccc(F)cc2)CC1 [Compound 26] |  | 1.8 | 316 ± 77 | 0.27 | 580 ± 177 | 1.5 | 0.486 ± 0.25 |  |  |  |  |
| O=C1CN(CCCCOC(c2ccc(F)cc2)c2ccc(F)cc2)CCN1 [Compound 27, 2-Oxo-4-[4-[bis(4-fluorophenyl)methoxy]butyl]piperazine] |  |  |  |  |  |  |  | >2.4 | 0.4 | 0.6 | Ki ([1]; Table 5, [125I]RTI-55, oxalate salts, read-out: DAT binding affinity Ki): 4100 ± 790 nM; IC50 ([2]; Table 6, bound given in μM): > 10 µM; IC50 ([3]; Table 6, read-out: Reuptake Inhibition [3H]5-HT IC50): 5.34 ± 0.95 µM; Ki ([4]; Table 5, bound given in μM): > 10 µM; Ki ([5]; Table 5, oxalate salts): 1800 ± 450 nM; IC50 ([6]; Table 6, read-out: Reuptake Inhibition [3H]DA IC50): 2.29 ± 0.2 µM |
| Fc1ccc(C(OCCCCN2CCN(c3ccc(F)cc3)CC2)c2ccc(F)cc2)cc1 [Compound 31, 1-(4-Fluorophenyl)-4-[4-[bis(4-fluorophenyl)methoxy]butyl]piperazine] |  |  |  |  |  |  |  | 7.8 | 1.3 | 23 |  |
| Fc1ccc(C(OCCCCN2CCN(c3ccccc3Cl)CC2)c2ccc(F)cc2)cc1 [Compound 32, 1-(2-Chlorophenyl)-4-[4-[bis(4-fluorophenyl)methoxy]butyl]piperazine] | 67 ± 10 |  |  |  |  |  |  | 8.1 | 1.3 | 4.9 | IC50 ([2]; Table 6): 0.29 ± 0.11 µM; IC50 [3, 10]: 0.119 ± 0.033 µM; Ki [4, 11]: 0.54 ± 0.18 µM; Ki ([5]; Table 5, oxalate salts): 88 ± 29 nM; IC50 [6, 12]: 0.328 ± 0.034 µM |
| Fc1ccc(C(OCCCCN2CCN(c3cccc(Cl)c3)CC2)c2ccc(F)cc2)cc1 [Compound 33, 1-(3-Chlorophenyl)-4-[4-[bis(4-fluorophenyl)methoxy]butyl]piperazine] |  |  |  |  |  |  |  | 1.7 | 0.8 | 9.5 |  |
| CC(=O)c1ccc(N2CCN(CCCCOC(c3ccc(F)cc3)c3ccc(F)cc3)CC2)cc1 [Compound 37, 1-[4-[4-[4-[Bis(4-fluorophenyl)methoxy]butyl]piperazin-1-yl]phenyl]ethanone] | 27 ± 8.6 |  |  |  |  |  |  | 4.1 | 1.6 | 111.5 | IC50 ([2]; Table 6): 0.033 ± 0.015 µM; IC50 [3, 10]: 1.23 ± 0.54 µM; Ki [4, 11]: 0.112 ± 0.038 µM; Ki ([5]; Table 5, oxalate salts): 42 ± 16 nM; IC50 [6, 12]: 3.01 ± 0.0086 µM |
